# Laboratory results reported in ChEMBL document CHEMBL4184100, “Discovery of 2-arylquinazoline derivatives as a new class of ASK1 inhibitors” (Bioorg Med Chem Lett, 2018).
# Active and inactive are the calls of the source. No cut-off for these calls is given here.
# Experiments:
# [1] = target: T1, Mitogen-activated protein kinase kinase kinase 5 (Homo sapiens, UniProt Q99683); assay: Inhibition of stress-activated full length recombinant human N-terminal GST-tagged ASK1 expressed in baculovirus expression system using MKK6 as substrate pretreated for 10 mins followed by substrate addition by Alphascreen assay
# T1 sequence (Q99683 whole entry): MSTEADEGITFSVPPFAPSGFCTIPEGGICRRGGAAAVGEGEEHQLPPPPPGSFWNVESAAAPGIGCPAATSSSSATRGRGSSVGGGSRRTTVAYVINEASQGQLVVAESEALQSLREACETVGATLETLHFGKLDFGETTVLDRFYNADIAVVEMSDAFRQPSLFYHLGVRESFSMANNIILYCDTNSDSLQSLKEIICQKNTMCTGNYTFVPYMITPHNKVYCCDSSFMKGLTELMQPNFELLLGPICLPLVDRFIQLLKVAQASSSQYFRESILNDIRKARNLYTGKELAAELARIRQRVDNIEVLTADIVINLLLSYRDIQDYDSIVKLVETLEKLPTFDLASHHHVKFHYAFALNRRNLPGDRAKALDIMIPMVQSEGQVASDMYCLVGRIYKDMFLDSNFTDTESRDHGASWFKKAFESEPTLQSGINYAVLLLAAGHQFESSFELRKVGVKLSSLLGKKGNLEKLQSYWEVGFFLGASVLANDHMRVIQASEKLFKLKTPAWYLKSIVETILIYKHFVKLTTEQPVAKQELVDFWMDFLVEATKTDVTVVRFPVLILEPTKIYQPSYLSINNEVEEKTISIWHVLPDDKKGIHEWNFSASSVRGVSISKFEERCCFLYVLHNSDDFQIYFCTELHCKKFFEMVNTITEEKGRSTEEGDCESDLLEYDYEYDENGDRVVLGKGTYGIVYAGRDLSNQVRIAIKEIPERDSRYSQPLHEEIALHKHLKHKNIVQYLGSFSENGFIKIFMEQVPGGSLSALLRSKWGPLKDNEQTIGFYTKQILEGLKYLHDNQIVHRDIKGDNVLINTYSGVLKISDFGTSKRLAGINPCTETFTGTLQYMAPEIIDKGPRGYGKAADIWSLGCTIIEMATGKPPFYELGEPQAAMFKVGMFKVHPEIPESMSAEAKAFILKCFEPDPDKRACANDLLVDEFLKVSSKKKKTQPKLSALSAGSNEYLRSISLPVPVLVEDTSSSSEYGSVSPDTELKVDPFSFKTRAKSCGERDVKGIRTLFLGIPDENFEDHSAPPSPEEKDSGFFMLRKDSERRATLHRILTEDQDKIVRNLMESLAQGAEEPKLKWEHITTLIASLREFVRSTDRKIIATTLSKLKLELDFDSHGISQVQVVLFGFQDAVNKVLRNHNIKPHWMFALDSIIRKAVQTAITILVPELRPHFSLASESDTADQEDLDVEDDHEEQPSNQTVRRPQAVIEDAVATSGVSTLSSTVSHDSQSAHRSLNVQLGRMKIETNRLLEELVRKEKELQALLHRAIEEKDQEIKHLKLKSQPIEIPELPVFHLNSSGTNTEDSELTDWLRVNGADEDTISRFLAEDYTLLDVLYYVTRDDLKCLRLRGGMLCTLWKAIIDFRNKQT
# [2] = target: T2, Mitogen-activated protein kinase kinase kinase 5 (Rattus norvegicus) (UniProt D3ZZH6); assay: Inhibition of […] in rat INS-1E cells assessed as reduction in TNFalpha-induced […] phosphorylation at ser207 residues up to 10 uM by immunoblot analysis; assay type: cell-based
# T2 sequence (whole entry): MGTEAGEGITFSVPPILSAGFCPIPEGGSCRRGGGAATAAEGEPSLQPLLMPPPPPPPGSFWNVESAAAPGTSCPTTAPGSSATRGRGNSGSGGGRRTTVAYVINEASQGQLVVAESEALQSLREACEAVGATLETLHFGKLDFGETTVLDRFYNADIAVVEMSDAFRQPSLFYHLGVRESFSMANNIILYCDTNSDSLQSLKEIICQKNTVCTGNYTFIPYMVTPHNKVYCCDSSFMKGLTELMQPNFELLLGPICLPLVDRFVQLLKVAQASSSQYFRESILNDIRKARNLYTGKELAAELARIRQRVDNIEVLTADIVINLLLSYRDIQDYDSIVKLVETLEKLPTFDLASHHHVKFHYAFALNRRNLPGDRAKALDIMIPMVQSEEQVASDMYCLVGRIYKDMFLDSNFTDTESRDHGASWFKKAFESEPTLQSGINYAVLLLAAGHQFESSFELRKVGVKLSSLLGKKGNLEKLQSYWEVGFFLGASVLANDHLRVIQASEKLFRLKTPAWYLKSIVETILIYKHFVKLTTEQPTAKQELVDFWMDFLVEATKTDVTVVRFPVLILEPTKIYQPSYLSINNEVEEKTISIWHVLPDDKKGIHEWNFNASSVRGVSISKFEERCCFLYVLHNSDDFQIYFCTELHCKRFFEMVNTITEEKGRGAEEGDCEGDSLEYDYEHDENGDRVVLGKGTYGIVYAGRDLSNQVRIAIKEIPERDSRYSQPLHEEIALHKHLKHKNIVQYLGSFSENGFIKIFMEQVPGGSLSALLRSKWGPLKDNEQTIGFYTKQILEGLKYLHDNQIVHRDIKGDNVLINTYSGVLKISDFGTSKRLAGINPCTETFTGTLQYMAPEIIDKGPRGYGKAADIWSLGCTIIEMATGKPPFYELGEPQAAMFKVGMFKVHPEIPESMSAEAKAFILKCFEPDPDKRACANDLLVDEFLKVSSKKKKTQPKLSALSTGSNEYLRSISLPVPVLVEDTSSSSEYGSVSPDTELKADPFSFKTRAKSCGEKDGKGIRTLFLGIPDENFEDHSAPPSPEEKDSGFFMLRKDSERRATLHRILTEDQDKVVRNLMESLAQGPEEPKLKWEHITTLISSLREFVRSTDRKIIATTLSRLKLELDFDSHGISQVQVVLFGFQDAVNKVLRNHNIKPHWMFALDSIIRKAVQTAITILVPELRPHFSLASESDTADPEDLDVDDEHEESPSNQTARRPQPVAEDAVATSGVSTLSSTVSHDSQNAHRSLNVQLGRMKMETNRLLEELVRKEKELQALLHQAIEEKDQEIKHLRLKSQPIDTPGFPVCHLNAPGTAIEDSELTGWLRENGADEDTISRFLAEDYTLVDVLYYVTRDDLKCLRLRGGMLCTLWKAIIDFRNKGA
# [3] = Solubility of the compound in phosphate buffered saline at pH 7.4; assay type: physicochemical; conditions: buffer
# [4] = Stability in human liver microsomes; assay type: ADME, microsome; conditions: read-out: Stability
# [5] = Stability in mouse liver microsomes; assay type: ADME, microsome; conditions: read-out: Stability
# [6] = Stability in rat liver microsomes; assay type: ADME, microsome; conditions: read-out: Stability
# CYP1A2 = target: T3, CYP1A2 (Homo sapiens, UniProt P05177); assay: Inhibition of CYP1A2 (unknown origin) at 10 uM relative to control; assay type: ADME
# T3 sequence (P05177 whole entry): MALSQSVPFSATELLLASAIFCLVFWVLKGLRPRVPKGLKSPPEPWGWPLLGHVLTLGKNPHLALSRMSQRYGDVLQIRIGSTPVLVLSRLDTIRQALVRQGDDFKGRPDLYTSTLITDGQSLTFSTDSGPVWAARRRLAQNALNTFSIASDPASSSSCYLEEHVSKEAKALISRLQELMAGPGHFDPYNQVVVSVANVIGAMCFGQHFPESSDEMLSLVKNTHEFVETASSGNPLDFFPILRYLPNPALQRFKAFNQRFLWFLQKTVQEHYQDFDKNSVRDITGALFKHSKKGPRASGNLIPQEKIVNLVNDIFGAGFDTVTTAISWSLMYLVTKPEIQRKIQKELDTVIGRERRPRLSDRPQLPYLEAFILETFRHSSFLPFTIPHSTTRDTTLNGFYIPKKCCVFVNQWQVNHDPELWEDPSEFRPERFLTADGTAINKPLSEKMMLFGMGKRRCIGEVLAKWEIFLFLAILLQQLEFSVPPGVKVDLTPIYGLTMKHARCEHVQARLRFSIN
# CYP2C9 = CYP2C9 (Homo sapiens, UniProt P11712); assay: Inhibition of CYP2C9 (unknown origin) at 10 uM relative to control; assay type: ADME
# CYP2C9, sequence (P11712 whole entry): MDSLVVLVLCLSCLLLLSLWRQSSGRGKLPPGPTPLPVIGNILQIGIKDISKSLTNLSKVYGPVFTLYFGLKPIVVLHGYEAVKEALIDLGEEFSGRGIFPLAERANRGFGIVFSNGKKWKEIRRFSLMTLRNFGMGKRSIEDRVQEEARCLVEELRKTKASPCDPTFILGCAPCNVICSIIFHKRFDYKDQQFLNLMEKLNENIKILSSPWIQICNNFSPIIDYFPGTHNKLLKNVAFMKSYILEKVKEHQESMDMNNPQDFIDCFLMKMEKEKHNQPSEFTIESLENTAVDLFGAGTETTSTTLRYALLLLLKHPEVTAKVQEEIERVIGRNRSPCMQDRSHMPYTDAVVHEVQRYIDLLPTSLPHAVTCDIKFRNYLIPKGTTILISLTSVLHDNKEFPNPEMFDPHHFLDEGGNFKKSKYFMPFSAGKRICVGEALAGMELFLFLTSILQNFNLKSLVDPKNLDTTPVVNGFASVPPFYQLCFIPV
# CYP2D6 = CYP2D6 (Homo sapiens, UniProt P10635); assay: Inhibition of CYP2D6 (unknown origin) at 10 uM relative to control; assay type: ADME
# CYP2D6, sequence (P10635 whole entry): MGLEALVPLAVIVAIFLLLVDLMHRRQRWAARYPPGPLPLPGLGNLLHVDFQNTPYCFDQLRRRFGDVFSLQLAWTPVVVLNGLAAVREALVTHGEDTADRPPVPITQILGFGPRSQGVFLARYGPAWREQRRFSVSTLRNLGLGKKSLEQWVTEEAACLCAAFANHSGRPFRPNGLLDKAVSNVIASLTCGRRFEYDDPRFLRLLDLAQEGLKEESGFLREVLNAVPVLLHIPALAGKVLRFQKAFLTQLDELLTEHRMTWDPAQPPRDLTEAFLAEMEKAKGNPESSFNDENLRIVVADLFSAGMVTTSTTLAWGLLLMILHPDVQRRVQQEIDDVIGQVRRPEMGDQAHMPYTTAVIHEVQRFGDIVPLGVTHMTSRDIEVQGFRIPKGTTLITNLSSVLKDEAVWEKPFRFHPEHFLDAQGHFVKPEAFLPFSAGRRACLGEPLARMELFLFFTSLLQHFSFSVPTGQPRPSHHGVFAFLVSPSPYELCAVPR
# CYP3A4 = CYP3A4 (Homo sapiens, UniProt P08684); assay: Inhibition of CYP3A4 (unknown origin) at 10 uM relative to control; assay type: ADME
# CYP3A4, sequence (P08684 whole entry): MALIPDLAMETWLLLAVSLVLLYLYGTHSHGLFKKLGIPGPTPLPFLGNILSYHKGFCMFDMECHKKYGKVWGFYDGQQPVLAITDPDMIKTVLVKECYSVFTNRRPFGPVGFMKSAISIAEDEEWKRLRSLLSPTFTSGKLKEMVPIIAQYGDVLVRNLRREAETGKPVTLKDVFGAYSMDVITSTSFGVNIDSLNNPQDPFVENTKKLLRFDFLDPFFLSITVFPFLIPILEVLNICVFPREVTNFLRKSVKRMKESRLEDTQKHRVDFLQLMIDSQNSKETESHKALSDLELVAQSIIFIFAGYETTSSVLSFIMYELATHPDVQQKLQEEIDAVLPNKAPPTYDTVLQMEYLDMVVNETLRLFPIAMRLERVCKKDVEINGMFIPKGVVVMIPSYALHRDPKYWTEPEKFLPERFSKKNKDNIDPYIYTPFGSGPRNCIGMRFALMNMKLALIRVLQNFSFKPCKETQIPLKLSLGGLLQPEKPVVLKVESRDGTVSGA
compound,measurement,setting,value
CC(=O)Nc1cccc(Nc2ncc3ccccc3n2)c1,IC50,[1],900 nM
same,inhibition,[2],Active
same,solubility,[3],100 µM
same,half-life,[4],6 min
same,half-life,[5],2 min
same,half-life,[6],4 min
same,inhibition at 10 µM,CYP1A2,94%
same,inhibition at 10 µM,CYP2C9,20%
same,inhibition at 10 µM,CYP2D6,13%
same,inhibition at 10 µM,CYP3A4,-13%
